{"source": "paper PMC6530361", "about": "“Anti-tumor Efficacy Assessment of the Sigma Receptor Pan Modulator RC-106. A Promising Therapeutic Tool for Pancreatic Cancer” (Frontiers in Pharmacology, 2019)", "format_in_all_cases": "cell-based", "key": {"[1]": {"system": "Panc-1, Capan-1, and Capan-2", "test": "Real-Time qRT-PCR of ER stress/UPR marker genes, all cell lines", "conditions": "exposure to 50 μM; 6, 12, and 24 h", "procedure": "Total cellular RNA was extracted using TRIzol reagent (Life technologies) in accordance with manufacturer’s instruction and quantified using the Nanodrop MD-1000 spectrophotometer system. Reverse transcription reactions were performed in 20 μL of nuclease free water containing 400 ng of total RNA using iScript cDNA Synthesis kit (Bio-Rad Laboratories, Hercules, CA). Real-Time PCR was run using 7500 Fast Real-Time PCR system (Applied Biosystems) and TaqMan assays to detect the expression of SIGMAR1, TMEM97, GRP78/BiP, ATF4, and CHOP genes.\nReactions were carried out in triplicate at a final volume of 20 μL containing 40 ng of cDNA template, TaqMan universal PCR Master Mix (2X), and selected TaqMan assays (20X). Samples were maintained at 50°C for 2 min, then at 95°C for 10 min followed by 40 amplification cycles at 95°C for 15 s, and at 60°C for 30 s.\nThe amount of mRNA was normalized to the endogenous genes GAPDH and HPRT-1."}, "Panc-1": {"system": "Panc-1", "test": "Western Blot of caspase 3 and 9 activation", "conditions": "Panc-1, 48 h, 25 μM", "procedure": "(§1) Western Blot were performed as previously described ([Arienti et al., 2016]). Briefly, Cell proteins were extracted with M-PER (Thermo Fisher Scientific) supplemented with Halt Protease Phosphatase Inhibitor Cocktail (Thermo Fisher Scientific).\n(§2) Mini-PROTEANTGX^TM precast gels (4–20% and any kD; BIO-RAD) were run using Mini-PROTEAN Tetra electrophoresis cells and then electroblotted by Trans-Blot Turbo^TM Mini PVDF Transfer Packs (BIORAD). The unoccupied membrane sites were blocked with T-TBS 1X (Tween 0.1%) and 5% non-fat dry milk to prevent non-specific binding of antibodies and probed with specific primary antibodies overnight at 4°C. This was followed by incubation with the respective secondary antibodies. The antibody-antigen complexes were detected with Immun-Star^TM WesternC^TM kit (BIO-RAD).\n(§3) The following primary antibodies were used: anti-sigma receptor (S18): sc-22948 (Santa Cruz Biotechnology inc.), anti-TMEM97, anti-caspase-3, and anti-caspase-9. Anti-vinculin (sc-5573) from Santa Cruz Biotechnology and anti-actin from Sigma Aldrich Inc., were used as housekeeping. Quantity One Software was used for analysis."}, "Capan-2": {"system": "Capan-2", "test": "Western Blot of caspase 3 and 9 activation", "conditions": "Capan-2, 48 h, 25 μM", "procedure": "as §1, §2, §3"}, "Capan-1": {"system": "Capan-1", "test": "Western Blot of caspase 3 and 9 activation", "conditions": "Capan-1, 12 h, 50 μM", "procedure": "as §1, §2, §3"}, "[2]": {"system": "proteasome activity of Capan-1", "test": "Proteasome activity assay", "conditions": "Capan-1, 24 h, highest concentration used", "procedure": "(§4) Cells were seeded in 6-well plates at density of 250 × 10^3 cells/well. Cells were treated with increasing concentration of RC-106 and after 24 h total protein extracts were obtained: cells were washed 2 times with PBS and lysed with 100 μL of lysis buffer (Hepes 5 mM pH 7.5, NaCl 150 mM, Glycerol 10%, Triton X100 1%, MgCl2 1.5 mM, EGTA 5 mM). Protein concentration of samples was quantified using Bradford method. Proteasome activity was quantified as described below. Proteasome solution was composed by 40 μg of proteins, 10 μL of 10X proteasome buffer (Hepes pH 7.5 250 mM, EDTA pH 8.0 5 mM, NP-40 0.5%, SDS 0.01%) and 10 μL of 10 mM proteasome substrate (N-Succinyl-Leu-Leu-Val-Tyr-7-Amido-4-Methylcoumarin, 7.6 mg/mL; Sigma-Aldrich, United States). 100 μL of proteasome solution was loaded in wells of a black 96-well plate. The plate was then incubated at 37°C for 2 h and the fluorescence was measured in a microplate reader (excitation 380 nm, emission 460 nm; BMG-Labtech, Germany)."}, "[3]": {"system": "proteasome activity of Capan-2", "test": "Proteasome activity assay", "conditions": "Capan-2, 24 h", "procedure": "as §4"}}}
{"molecule": "C/C(=C\\CN1CCC(Cc2ccccc2)CC1)c1ccc2ccccc2c1", "note": "[RC-106, (E)-4-benzyl-1-(3-(naphthalen-2-yl)but-2-en-1-yl)piperidine]", "values": [{"measurement": "mRNA expression of ER markers GRP78/BiP, ATF4, and CHOP", "setting": "[1]", "value": "highly increased"}, {"measurement": "caspases 3 and 9 cleavage", "setting": "Panc-1", "value": "cleaved"}, {"measurement": "caspases 3 and 9 cleavage", "setting": "Capan-2", "value": "cleaved"}, {"measurement": "caspases 3 and 9 cleavage", "setting": "Capan-1", "value": "cleaved"}, {"measurement": "concentration at which greatest proteasome inhibition is observed", "setting": "[2]", "value": 100, "unit": "µM"}, {"measurement": "lowest concentration used to inhibit proteasome activity", "setting": "[3]", "value": 20, "unit": "µM"}]}
